Experiment [1] deals with T1, Aurora kinase C (Homo sapiens) (UniProt Q9UQB9).
T1 sequence (whole entry): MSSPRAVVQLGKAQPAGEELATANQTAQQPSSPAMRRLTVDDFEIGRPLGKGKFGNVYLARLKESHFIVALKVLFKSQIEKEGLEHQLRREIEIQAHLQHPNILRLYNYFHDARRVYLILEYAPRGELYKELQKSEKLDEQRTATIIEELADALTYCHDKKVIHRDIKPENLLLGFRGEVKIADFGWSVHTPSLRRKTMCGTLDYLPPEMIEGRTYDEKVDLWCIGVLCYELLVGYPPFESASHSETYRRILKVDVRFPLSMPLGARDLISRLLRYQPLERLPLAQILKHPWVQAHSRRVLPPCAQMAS
Description: Selectivity interaction (KinomeScan (DiscoverX)) EUB0001619a AURKC. To be noted: at 1 µM.

The target in experiment [2] is T2, Myosin-IIIb (Homo sapiens) (UniProt Q8WXR4).
T2 sequence (whole entry): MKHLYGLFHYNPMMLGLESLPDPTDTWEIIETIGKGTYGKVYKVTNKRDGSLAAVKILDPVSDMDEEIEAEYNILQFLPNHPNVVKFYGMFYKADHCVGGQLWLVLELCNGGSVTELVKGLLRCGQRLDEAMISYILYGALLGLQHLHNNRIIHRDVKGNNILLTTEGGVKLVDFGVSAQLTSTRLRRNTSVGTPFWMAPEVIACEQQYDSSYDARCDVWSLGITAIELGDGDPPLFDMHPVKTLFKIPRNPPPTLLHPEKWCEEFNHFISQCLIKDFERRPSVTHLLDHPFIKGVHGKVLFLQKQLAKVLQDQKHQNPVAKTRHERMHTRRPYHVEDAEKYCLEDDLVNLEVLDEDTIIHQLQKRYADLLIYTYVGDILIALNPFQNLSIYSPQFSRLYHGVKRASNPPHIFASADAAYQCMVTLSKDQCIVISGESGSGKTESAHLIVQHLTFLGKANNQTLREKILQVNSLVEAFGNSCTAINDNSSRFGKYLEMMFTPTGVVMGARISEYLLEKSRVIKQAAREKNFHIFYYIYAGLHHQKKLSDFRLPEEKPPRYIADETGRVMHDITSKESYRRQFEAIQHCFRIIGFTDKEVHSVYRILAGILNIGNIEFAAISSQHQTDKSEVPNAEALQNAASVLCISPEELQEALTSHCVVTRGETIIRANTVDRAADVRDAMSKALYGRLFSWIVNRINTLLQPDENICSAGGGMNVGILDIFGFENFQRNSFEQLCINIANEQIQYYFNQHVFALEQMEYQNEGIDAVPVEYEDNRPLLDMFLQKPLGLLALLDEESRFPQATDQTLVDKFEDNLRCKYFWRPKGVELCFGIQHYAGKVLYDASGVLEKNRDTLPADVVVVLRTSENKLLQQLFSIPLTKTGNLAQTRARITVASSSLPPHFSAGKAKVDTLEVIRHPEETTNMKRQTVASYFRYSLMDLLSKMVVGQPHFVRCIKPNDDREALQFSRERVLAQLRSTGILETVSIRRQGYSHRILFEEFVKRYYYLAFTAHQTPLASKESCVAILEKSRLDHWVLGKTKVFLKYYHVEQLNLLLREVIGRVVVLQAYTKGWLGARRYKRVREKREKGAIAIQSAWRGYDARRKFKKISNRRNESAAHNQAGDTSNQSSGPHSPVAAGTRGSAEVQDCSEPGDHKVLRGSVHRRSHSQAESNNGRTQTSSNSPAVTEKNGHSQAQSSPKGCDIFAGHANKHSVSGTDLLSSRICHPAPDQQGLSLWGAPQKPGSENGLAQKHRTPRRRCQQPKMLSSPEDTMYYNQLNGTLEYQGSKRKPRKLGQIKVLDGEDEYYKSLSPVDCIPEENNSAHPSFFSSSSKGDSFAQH
Put plainly: Selectivity interaction (KinomeScan (DiscoverX)) EUB0000618a MYO3B. Particulars: at 10 µM.

Experiment [3] has as its target T3, Mitogen-activated protein kinase kinase kinase 5 (Homo sapiens) (UniProt Q99683).
T3 sequence (whole entry): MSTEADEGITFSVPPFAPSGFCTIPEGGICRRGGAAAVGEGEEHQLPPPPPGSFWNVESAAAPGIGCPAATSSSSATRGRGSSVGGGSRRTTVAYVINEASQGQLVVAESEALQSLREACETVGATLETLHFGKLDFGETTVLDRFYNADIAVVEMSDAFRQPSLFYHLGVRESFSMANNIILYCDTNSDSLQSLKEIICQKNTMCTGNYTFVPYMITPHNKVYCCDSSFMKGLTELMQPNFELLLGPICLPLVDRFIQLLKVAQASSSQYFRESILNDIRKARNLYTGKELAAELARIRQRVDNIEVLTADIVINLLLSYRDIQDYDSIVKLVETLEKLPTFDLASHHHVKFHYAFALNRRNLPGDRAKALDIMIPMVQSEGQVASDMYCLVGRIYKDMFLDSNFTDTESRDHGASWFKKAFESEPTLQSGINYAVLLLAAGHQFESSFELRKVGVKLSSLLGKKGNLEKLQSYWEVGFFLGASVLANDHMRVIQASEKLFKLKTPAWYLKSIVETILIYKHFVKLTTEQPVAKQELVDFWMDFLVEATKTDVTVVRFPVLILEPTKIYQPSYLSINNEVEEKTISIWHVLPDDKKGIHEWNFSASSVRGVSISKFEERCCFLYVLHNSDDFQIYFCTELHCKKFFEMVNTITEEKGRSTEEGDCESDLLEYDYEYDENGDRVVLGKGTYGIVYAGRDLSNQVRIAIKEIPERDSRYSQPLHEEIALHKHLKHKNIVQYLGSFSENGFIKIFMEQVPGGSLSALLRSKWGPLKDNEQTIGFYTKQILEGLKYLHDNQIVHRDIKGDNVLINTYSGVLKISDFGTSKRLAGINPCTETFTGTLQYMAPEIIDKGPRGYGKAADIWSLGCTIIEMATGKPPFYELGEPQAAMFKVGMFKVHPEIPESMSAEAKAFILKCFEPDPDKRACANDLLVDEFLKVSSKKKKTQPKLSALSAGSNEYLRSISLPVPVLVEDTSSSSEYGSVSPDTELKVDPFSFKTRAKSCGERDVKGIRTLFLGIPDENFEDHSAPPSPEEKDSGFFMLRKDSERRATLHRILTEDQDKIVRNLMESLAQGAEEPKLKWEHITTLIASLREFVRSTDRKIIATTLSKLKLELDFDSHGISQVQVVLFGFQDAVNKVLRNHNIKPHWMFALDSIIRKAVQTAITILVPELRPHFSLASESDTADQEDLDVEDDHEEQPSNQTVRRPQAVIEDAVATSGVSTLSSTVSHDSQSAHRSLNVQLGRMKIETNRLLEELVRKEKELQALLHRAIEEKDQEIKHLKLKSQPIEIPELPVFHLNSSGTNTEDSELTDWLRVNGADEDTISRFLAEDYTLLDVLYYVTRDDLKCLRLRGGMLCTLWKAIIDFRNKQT
Description: Selectivity interaction (Kinase panel (DSF assay)) EUB0001558a MAP3K5.

Consider `N#Cc1cccc(-c2c[nH]c3ncnc(N4CCOCC4)c23)c1`, for which, in experiment [1], the % of control is 43%.

In experiment [2], `O[C@H]1CC[C@H](Nc2ncc3nc(Nc4c(F)cc(F)cc4F)n([C@H]4CCOC4)c3n2)CC1` had a % of control of 95%. In experiment [3], `CC(C)(O)[C@H](F)CN1Cc2cc(NC(=O)c3cnn4cccnc34)c(N3CCOCC3)cc2C1=O` gave a dTM of 0.5 K.

The values are drawn from ChEMBL document CHEMBL5465560, “Selectivity Literature for EUbOPEN Chemogenomic Library” (2024).
